{"source": "patent US5545618A", "about": "“GLP-1 analogs useful for diabetes treatment” (priority 1993, dated 1996)", "key": {"RIN 1046-38 cells": {"test_system": "RIN 1046-38 cells", "description": "An additional test for potency of the compounds of the invention measures their ability to stimulate cAMP production in RIN 1046-38 cells. This assay can be conducted as follows:\nOn day 1, 5×10^5 RIN 1046-38 cells (Drucker, D. J., et al., Proc Natl Acad Sci USA (1987) 84:3434-3438) are seeded into individual wells of 6-well dishes with 2.5 mL M199 culture medium. On day 4, cells are re-fed with fresh medium and on day 5 the assay is performed. […] Assays are only performed on cell passage ≤24.\nAt time -60 min, monolayers are washed twice with 2.5 mL PBS, and medium is changed to 1.0 mL of DMEM medium plus 4.5 g/l glucose and 0.1% BSA (assay medium). At 0 time, medium is aspirated and fresh assay medium, 1.0 mL, containing test compound is added. Test compound is added in 50 ul volume of PBS plus 0.1% BSA; controls are added in vehicle alone. Incubation is continued for 0 to 60 min.\nAt termination, conditioned medium and monolayer are harvested to measure both extra- and intracellular cAMP content. For extracellular measurement, medium is removed and centrifuged to remove any cellular debris. For intracellular determination, after medium removal, 1.0 mL of ice cold 95% ethanol is added to monolayer. Cells are collected by scraping, lysed by two cycles of quick freeze/thawing using liquid N2, and cell debris then removed by centrifugation. Aliquots (1/40th well content) of conditioned medium and ethanol cell extract are measured in duplicate for cAMP levels using an RIA kit by the acetylated protocol.\nInsulin secretion can also be measured by the method described by Holst, J. J., et al. FEBS Letters (1987) 211:169-174 (supra). Also useful as an assay for insulinotropic effect is the measurement of stimulation of adenylate cyclase in the RIN 1046-38 cell line. Drucker, D. J. et al., Proc Natl Acad Sci USA (1987) 84:3434-3438 (supra)."}, "[1]": {"experiment": "degradation in plasma by RP-HPLC; note: key: +: degradation was not observed; -: was complete after this time", "assay_type": "in vitro ADME", "details": "incubation in plasma for 60 minutes"}, "[2]": {"assay_type": "in vitro ADME", "description": "Polyclonal antisera were raised in New Zealand White rabbits against a synthetic peptide fragment corresponding to residues 24 to 37 of GLP-1(7-37) using the method of Mosjoy, S. et al., J Biol Chem (1986) 261:11880-11889. Initial immunizations were into the inguinal lymph nodes and used Freund's complete adjuvant. Two subcutaneous boosts were performed at 1 week intervals after the initial immunization and used Freund's incomplete adjuvant. For a single immunization or boost 100 μg peptide and 100 μg methylated BSA dissolved in 0.3 mL phosphate-buffered saline (PBS) were emulsified with 0.9 mL adjuvant. Bleeds (50 mL) began at week 6 after the initial immunization and continued at 1 month intervals thereafter. Repeat boosts were performed as above when titers dropped noticeably from the level of the previous bleed."}}, "note": "Read-outs that look alike come from different tables or passages of the source.", "data": [{"compound": "CC[C@H](C)[C@H](NC(=O)[C@H](Cc1ccccc1)NC(=O)[C@H](CCC(=O)O)NC(=O)[C@H](CCCCN)NC(=O)[C@H](C)NC(=O)[C@H](C)NC(=O)[C@H](CCC(N)=O)NC(=O)CNC(=O)[C@H](CCC(=O)O)NC(=O)[C@H](CC(C)C)NC(=O)[C@H](Cc1ccc(O)cc1)NC(=O)[C@H](CO)NC(=O)[C@H](CO)NC(=O)[C@@H](NC(=O)[C@H](CC(=O)O)NC(=O)[C@H](CO)NC(=O)[C@@H](NC(=O)[C@H](Cc1ccccc1)NC(=O)[C@@H](NC(=O)CNC(=O)[C@@H](CC(=O)O)NC(=O)[C@H](C)NC(=O)[C@@H](N)Cc1c[nH]cn1)[C@@H](C)O)[C@@H](C)O)C(C)C)C(=O)N[C@@H](C)C(=O)N[C@@H](Cc1c[nH]c2ccccc12)C(=O)N[C@@H](CC(C)C)C(=O)N[C@H](C(=O)N[C@@H](CCCCN)C(=O)NCC(=O)N[C@@H](CCCNC(=N)N)C(=O)NCC(=O)O)C(C)C", "note": "[(D^.dagger.)^9 -GLP-1(7-37)]", "values": [{"measurement": "ED50 nM Duplicate Assays (first value)", "setting": "RIN 1046-38 cells", "value": 0.90, "unit": "nM"}, {"measurement": "ED50 nM Duplicate Assays (second value)", "setting": "RIN 1046-38 cells", "value": 0.90, "unit": "nM"}, {"measurement": "Resistance to Degradation", "setting": "[1]", "value": "-"}]}, {"compound": "CC[C@H](C)[C@H](NC(=O)[C@H](Cc1ccccc1)NC(=O)[C@H](CCC(=O)O)NC(=O)[C@H](CCCCN)NC(=O)[C@H](C)NC(=O)[C@H](C)NC(=O)[C@H](CCC(N)=O)NC(=O)CNC(=O)[C@H](CCC(=O)O)NC(=O)[C@H](CC(C)C)NC(=O)[C@H](Cc1ccc(O)cc1)NC(=O)[C@H](CO)NC(=O)[C@H](CO)NC(=O)[C@@H](NC(=O)[C@H](CC(=O)O)NC(=O)[C@H](CO)NC(=O)[C@@H](NC(=O)[C@H](Cc1ccccc1)NC(=O)[C@@H](NC(=O)CNC(=O)[C@H](CCC(=O)O)NC(=O)[C@H](C)NC(=O)[C@@H](N)Cc1ccc(O)cc1)[C@@H](C)O)[C@@H](C)O)C(C)C)C(=O)N[C@@H](C)C(=O)N[C@@H](Cc1c[nH]c2ccccc12)C(=O)N[C@@H](CC(C)C)C(=O)N[C@H](C(=O)N[C@@H](CCCCN)C(=O)NCC(=O)N[C@@H](CCCNC(=N)N)C(=O)NCC(=O)O)C(C)C", "note": "[(Y)^7 -GLP-1(7-37)]", "values": [{"measurement": "Resistance to Degradation", "setting": "[1]", "value": "-"}]}, {"compound": "GLP-1(7-37)", "values": [{"measurement": "ED50 nM Duplicate Assays (first value)", "setting": "RIN 1046-38 cells; cAMP stimulation in RIN 1046-38 cells, first of duplicate assays", "value": 0.16, "unit": "nM"}, {"measurement": "ED50 nM Duplicate Assays (second value)", "setting": "RIN 1046-38 cells; cAMP stimulation in RIN 1046-38 cells, second of duplicate assays", "value": 0.25, "unit": "nM"}, {"measurement": "ability of recovered fragment to inhibit binding of radiolabeled GLP-1(7-37) to carboxy terminal-specific antibody", "setting": "[2]", "value": "no diminution"}]}, {"compound": "CC[C@H](C)[C@H](NC(=O)[C@H](Cc1ccccc1)NC(=O)[C@H](CCC(=O)O)NC(=O)[C@H](CCCCN)NC(=O)[C@H](C)NC(=O)[C@H](C)NC(=O)[C@H](CCC(N)=O)NC(=O)CNC(=O)[C@H](CCC(=O)O)NC(=O)[C@H](CC(C)C)NC(=O)[C@H](Cc1ccc(O)cc1)NC(=O)[C@H](CO)NC(=O)[C@H](CO)NC(=O)[C@@H](NC(=O)[C@H](CC(=O)O)NC(=O)[C@H](CO)NC(=O)[C@@H](NC(=O)[C@H](Cc1ccccc1)NC(=O)[C@@H](NC(=O)CNC(=O)[C@H](CCC(=O)O)NC(=O)[C@H](C)NC(=O)[C@H](Cc1c[nH]cn1)NC(C)C)[C@@H](C)O)[C@@H](C)O)C(C)C)C(=O)N[C@@H](C)C(=O)N[C@@H](Cc1c[nH]c2ccccc12)C(=O)N[C@@H](CC(C)C)C(=O)N[C@H](C(=O)N[C@@H](CCCCN)C(=O)NCC(=O)N[C@@H](CCCNC(=N)N)C(=O)NCC(=O)O)C(C)C", "note": "[(N-isopropyl-H)^7 GLP-1(7-37), (N-isopropyl-H)^7 -GLP-1(7-37)]", "values": [{"measurement": "Resistance to Degradation", "setting": "[1]", "value": "+"}]}]}
